Measured values from patent publication US9340577B2, “HLA binding motifs and peptides and their uses” (priority 1992, dated 2016).
Where two headings read alike, the source gives them in different places. No end group written: not given here.

How the values were obtained:
Experiment in all cases: biochemical
[1] = target: DR4w4 (DRB1*0401) (Homo sapiens, UniProt P01903+P01911, A100K/A169T/F76Y/I96L/K127E/L162R/M171V/N62H/P40V/Q125Y/R42H/S133A/S149N/S66Y/V115G/V209L/W38E); assay type: binding
[2] = target: DRB1*0301 (Homo sapiens, UniProt P01903+P01911, A100K/A102G/A103R/A169T/F55Y/I96L/K41T/L162R/M171V/P40S/Q125H/Q178H/Q39Y/R42S/S66N/T106N/T262R/W38E/Y61H); assay type: binding
[3] = target: DR7 (DRB1*0701) (Homo sapiens, UniProt P01903+P01911, A100R/A102G/A103Q/D57E/D86V/E43K/F76Y/K127E/L162R/M171V/P40G/Q125H/Q99D/R33Q/R42Y/R54Q/S133A/S66F/T210M/V115G/Y107V/Y59L/Y89S); assay type: binding
[4] = target: DRB3*0101 (Homo sapiens, UniProt P01903+P79483); assay type: binding
[5] = target: DRB4*0101 (Homo sapiens, UniProt P01903+P13762, G164S); assay type: binding
[6] = target: DR1 (DRB1*0101) (Homo sapiens, UniProt P01903+P01911, A100R/D57E/F55L/F60I/F76Y/I96L/L162R/M171V/P40L/Q125E/R42F/V115G/Y59C); assay type: binding
[7] = target: DRB5*0101 (Homo sapiens, UniProt P01903+Q30154)
[8] = target: DRB1*0901 (Homo sapiens, UniProt P01903+P01911, A100R/A103E/D57H/D86V/F55Y/F60I/F76Y/I96F/K127E/L162R/M171V/P40D/Q125H/Q99R/R33Q/R42F/S133A/S66N/T210M/V115G/W38K/Y107V/Y59G/Y89S); assay type: binding
[9] = target: DRB1*1302 (Homo sapiens, UniProt P01903+P01911, A100E/A169T/K41T/L162R/M171V/P40S/Q125H/Q178H/Q39Y/Q99D/R42S/S66N/T262R/V115G/W38E/Y61H); assay type: binding
[10] = target: DRB1*0802 (Homo sapiens, UniProt P01903+P01911, A100R/A103L/A169T/F76Y/H45Y/I96F/K41T/L162R/M171V/P40S/Q125H/Q178H/Q39Y/Q99D/R218S/R42G/S66Y/V115G/W38E); assay type: binding
[11] = target: DRB1*1101 (Homo sapiens, UniProt P01903+P01911, A100R/A169T/A87E/I96F/K41T/L162R/M171V/P40S/Q125H/Q178H/Q39Y/Q99D/R42S/S66Y/T262R/V115G/W38E)
[12] = target: DRB1*1501 (Homo sapiens, UniProt P01903+P01911); assay type: binding
[13] = target: DRB1*0405 (Homo sapiens, UniProt P01903+P01911, A100R/A169T/D86S/F76Y/I96L/K127E/L162R/M171V/N62H/P40V/Q125Y/R42H/S133A/S149N/S66Y/V115G/V209L/W38E); assay type: binding
[14] = target: DRB1*1201 (Homo sapiens, UniProt P01903+P01911, A100R/A169T/D57E/D86V/F55L/H45Y/K41T/L162R/M171V/P40S/Q125H/Q178H/Q39Y/Q99D/R42G/S66L/T262R/V114A/V67L/W38E/Y59H/Y61H/Y89S); assay type: binding

Sequence of DRB1*0301 (P01903 26-254 limits assumed, other chains not shown): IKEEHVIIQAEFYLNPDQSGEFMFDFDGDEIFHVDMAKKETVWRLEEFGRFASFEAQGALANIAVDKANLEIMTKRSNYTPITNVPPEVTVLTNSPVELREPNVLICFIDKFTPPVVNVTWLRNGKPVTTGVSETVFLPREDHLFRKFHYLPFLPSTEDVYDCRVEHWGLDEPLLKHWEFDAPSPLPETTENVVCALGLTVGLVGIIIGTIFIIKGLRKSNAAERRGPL
Sequence of DRB1*1302 (P01903 26-254 limits assumed, other chains not shown): as above
Sequence of DRB1*1101 (P01903 26-254 limits assumed, other chains not shown): as above

Compound	IC50 [1]	IC50 [2]	IC50 [3]	IC50 [4]	IC50 [5]	IC50 [6]	IC50 ([7]; Binding affinity DRB5 *0101)	IC50 [8]	IC50 [9]	IC50 [10]	IC50 ([11]; Binding affinity DRB1 *1101)	IC50 [12]	IC50 [13]	IC50 [14]	IC50 ([11]; […])	IC50 ([7]; DRB5*0101)	IC50 ([11]; DRB1*1101)	IC50 [7]	IC50 [11]
GRVNTHVHNPLLCSS [Peptide 1601.34]	> 20 µM	9.95 µM	6.02 µM	> 20 µM	5.98 µM	0.873 µM	> 20 µM	3.35 µM	0.865 µM	2.69 µM	> 20 µM	–	–	–	–	–	–	–	–
EYILDLHPEPTDLFC [Peptide 1543.51]	–	–	> 20 µM	0.083 µM	0.0082 µM	0.189 µM	> 20 µM	> 20 µM	4.75 µM	16.3 µM	19.5 µM	> 20 µM	1.14 µM	2.6 µM	–	–	–	–	–
STWHWTGCNKNTGIL [Peptide 1601.38]	> 20 µM	> 20 µM	–	> 20 µM	> 20 µM	> 20 µM	16.5 µM	> 20 µM	0.487 µM	11.7 µM	0.662 µM	> 20 µM	–	–	–	–	–	–	–
CC[C@H](C)[C@H](NC(=O)CNC(=O)[C@H](Cc1ccc(O)cc1)NC(=O)[C@H](CC(C)C)NC(=O)[C@H](CO)NC(=O)[C@H](CC(C)C)NC(=O)[C@H](CC(C)C)NC(=O)[C@H](CO)NC(=O)[C@H](CC(C)C)NC(=O)[C@H](CCC(=O)O)NC(=O)[C@H](CO)NC(=O)[C@@H](N)CC(C)C)C(=O)N[C@@H](Cc1c[nH]cn1)C(=O)N[C@@H](CCCCN)C(=O)N[C@@H](CCC(N)=O)C(=O)O [Peptide 68.0044]	–	> 20 µM	> 20 µM	> 20 µM	–	–	–	–	–	–	–	–	–	–	–	–	–	–	–
QKGRGYRGQHQAHSLERVCH [Peptide F025.05]	–	> 20 µM	–	> 20 µM	–	–	–	–	–	–	–	> 20 µM	–	–	> 20 µM	–	–	–	–
VHEGIRTYFVQFKDD [Peptide 1601.05]	–	9.33 µM	5.73 µM	9.92 µM	1.8 µM	9.28 µM	> 20 µM	5.86 µM	–	12.2 µM	> 20 µM	0.038 µM	–	–	–	–	–	–	–
QIQVFETLEET [Peptide 1385.01]	> 20 µM	> 20 µM	–	> 20 µM	> 20 µM	> 20 µM	–	–	> 20 µM	–	–	–	–	–	–	–	–	–	–
CC[C@H](C)[C@H](N)C(=O)N[C@@H](CC(C)C)C(=O)N[C@@H](CC(C)C)C(=O)N[C@@H](Cc1c[nH]c2ccccc12)C(=O)N[C@@H](CCC(N)=O)C(=O)N1CCC[C@H]1C(=O)N[C@H](C(=O)N1CCC[C@H]1C(=O)N[C@H](C(=O)N[C@@H](Cc1c[nH]cn1)C(=O)N[C@H](C(=O)N[C@H](C(=O)N1CCC[C@H]1C(=O)N[C@@H](CC(C)C)C(=O)N[C@@H](CO)C(=O)O)C(C)C)[C@@H](C)O)C(C)C)[C@@H](C)CC [Peptide 68.0038]	–	> 20 µM	–	> 20 µM	–	–	> 20 µM	–	–	–	–	–	–	–	–	–	–	–	–
CC[C@H](C)[C@H](NC(=O)[C@@H](N)CCCCN)C(=O)N[C@@H](Cc1ccccc1)C(=O)NCC(=O)N[C@@H](CO)C(=O)N[C@@H](CC(C)C)C(=O)N[C@@H](C)C(=O)N[C@@H](Cc1ccccc1)C(=O)N[C@@H](CC(C)C)C(=O)N1CCC[C@H]1C(=O)N[C@@H](CCC(=O)O)C(=O)N[C@@H](CO)C(=O)N[C@@H](Cc1ccccc1)C(=O)N[C@@H](CC(=O)O)C(=O)NCC(=O)N[C@@H](CC(=O)O)C(=O)N1CCC[C@H]1C(=O)N[C@@H](C)C(=O)O [Peptide 1533.07]	–	> 20 µM	–	> 20 µM	–	–	–	–	–	> 20 µM	> 20 µM	–	–	–	–	–	–	–	–
CC[C@H](C)[C@H](NC(=O)[C@@H](NC(=O)[C@@H]1CCCN1C(=O)[C@@H](NC(=O)[C@@H](NC(=O)[C@H](CC(N)=O)NC(=O)CNC(=O)[C@H](CO)NC(=O)[C@H](CS)NC(=O)[C@H](CC(C)C)NC(=O)[C@H](CCCCN)NC(=O)[C@H](CCCNC(=N)N)NC(=O)[C@H](CCCNC(=N)N)NC(=O)[C@@H](N)CCCCN)[C@@H](C)O)[C@@H](C)O)[C@@H](C)CC)C(=O)N[C@@H](Cc1c[nH]cn1)C(=O)O [Peptide 1601.16]	0.311 µM	5.94 µM	–	> 20 µM	> 20 µM	–	4.98 µM	0.061 µM	0.0076 µM	4.74 µM	> 20 µM	9.33 µM	–	–	–	–	–	–	–
SADDLRAFQQLFLNT [Peptide 1543.07]	–	–	0.124 µM	> 20 µM	0.27 µM	0.295 µM	> 20 µM	0.559 µM	3.13 µM	7 µM	3.59 µM	–	0.411 µM	0.305 µM	–	–	–	–	–
CC[C@H](C)[C@H](N)C(=O)N[C@@H](CO)C(=O)N[C@H](C(=O)N[C@H](C(=O)N[C@@H](CC(N)=O)C(=O)N[C@@H](CCC(=O)O)C(=O)N[C@@H](CC(=O)O)C(=O)NCC(=O)N[C@@H](CC(N)=O)C(=O)N[C@@H](CCC(=O)O)C(=O)N[C@H](C(=O)N[C@@H](Cc1ccccc1)C(=O)N[C@@H](CC(N)=O)C(=O)N[C@H](C(=O)N[C@@H](CO)C(=O)O)[C@@H](C)O)[C@@H](C)CC)[C@@H](C)CC)[C@@H](C)CC [Peptide 68.0166]	> 20 µM	–	> 20 µM	0.035 µM	6.39 µM	–	> 20 µM	> 20 µM	–	> 20 µM	> 20 µM	3.01 µM	–	10.7 µM	–	> 37.8 µM	> 18.9 µM	–	–
AATYNFAVLKLMGRGTKF [Peptide F025.08]	–	> 20 µM	–	> 20 µM	–	–	–	–	–	–	–	–	–	–	–	–	–	–	–
CSCC[C@H](NC(=O)CNC(=O)CNC(=O)[C@H](CCCNC(=N)N)NC(=O)[C@@H](NC(=O)[C@H](CCC(N)=O)NC(=O)[C@H](C)NC(=O)[C@@H](NC(=O)[C@@H](NC(=O)[C@H](CC(C)C)NC(=O)[C@H](Cc1c[nH]cn1)NC(=O)[C@H](Cc1ccc(O)cc1)NC(=O)[C@@H](N)CCCCN)[C@@H](C)O)C(C)C)C(C)C)C(=O)N[C@H](C(=O)N[C@@H](Cc1ccccc1)C(=O)O)C(C)C [Peptide 68.0120]	–	> 20 µM	–	> 20 µM	–	–	–	–	–	–	–	–	–	–	–	–	–	–	–
VVTIPNSVQISVGYM [Peptide 1601.41]	0.835 µM	> 20 µM	0.071 µM	> 20 µM	–	–	> 20 µM	–	–	–	4.22 µM	3.44 µM	–	–	–	–	–	–	–
CC[C@H](C)[C@H](NC(=O)[C@H](C)NC(=O)[C@@H](NC(=O)[C@@H](NC(=O)[C@H](CC(N)=O)NC(=O)[C@H](CC(C)C)NC(=O)[C@H](Cc1ccccc1)NC(=O)[C@H](CCCCN)NC(=O)[C@@H](NC(=O)[C@H](CCCNC(=N)N)NC(=O)[C@H](CCC(N)=O)NC(=O)[C@H](CCCCN)NC(=O)[C@@H](N)CCC(=O)O)[C@@H](C)O)[C@@H](C)O)C(C)C)C(=O)N1CCC[C@H]1C(=O)N[C@@H](CC(=O)O)C(=O)O [Peptide 1601.19]	4.5 µM	11.8 µM	0.123 µM	> 20 µM	6.45 µM	0.061 µM	–	0.284 µM	–	> 20 µM	–	> 20 µM	–	–	–	–	–	> 20 µM	> 20 µM
